Experimental data from patent US10564164B2, “Fluorescent probe, singlet oxygen detection agent, and singlet oxygen detection method” (Osaka University, priority 2014, dated 2020).

Assays:
[1] = Fluorescence change after singlet oxygen generated chemically by NaOCl and H2O2; format: physicochemical; conditions: for fluorescence depending on concentration of singlet oxygen: NaClO and H2O2, DMSO:methanol:tris buffer 1:49:50, 5 μM
Description: Further, singlet oxygen was introduced into Si-DMA using a chemical catalyst. More specifically, singlet oxygen was introduced using 10 mM NaOCl and 10 mM H2O2. In this case as well, a spectral change similar to that in FIG. 1 was observed. […] The black arrow in FIG. 4a) and the red arrow in FIG. 4b) respectively show a loss of the anthracene structure, and an increase in the fluorescence of Si-DMA. The fluorescence increased about 10 times by 10-minute incubation using NaOCl and H2O2. By introducing a greater amount of singlet oxygen, more Si-DMA is expected to change into Si-DMEP.
The measurement was performed by generating singlet oxygen using NaClO and H2O2 in a solution containing DMSO:methanol:tris buffer agent=1:49:50 (Si-DMA concentration=5 μM).

[2] = Fluorescence quantum yield in various solvents in the absence of singlet oxygen; format: physicochemical
Description: Further, in the in vitro measurement, unless otherwise specified, all bulk spectrum measurements were performed in a phosphate buffered saline (PBS) having a pH of 7.5 without Ca and Mg or spectral grade methanol. The absorption spectrum and fluorescence spectrum in the ground state were measured using the Shimadzu UV-3100 and Horiba FluoroMax-4, respectively. The bulk irradiation was performed using a xenon light source (LAX-C100, Asahi Spectra Co., Ltd.) and a wavelength filter (BA510-550, Olympus Corporation).
As is clear from the above, fluorescence was hardly observed in the absence of singlet oxygen, (Φfl=0.01; in methanol), and the excitation of silicon-rhodamine was cancelled due to photoinduced electron transfer caused by the anthracene structure. The fluorescence in the absence of singlet oxygen also depended on the type of solvent. The fluorescence intensity decreases when a polar solvent is used, thereby inhibiting erroneous signals.

HeLa cells = experiment: Selectivity of photosensitizer: intracellular singlet oxygen detection with Si-DMA; format: cell-based; conditions: 25 nM Si-DMA, 640 nm, 0.6 W/cm2
Description: Subsequently, a quick protocol provided by Molecular Probe® for introducing CellROX Green was followed. Using diluted Si-DMA and Si-Me, incubation was performed for 30 minutes to two hours by an experiment. To introduce a photosensitizer, 150 μg/mL of 5-aminolevulinic acid (5-ALA) or 10 LM TMPyP4 were incubated for four hours and 24 hours, respectively. As a result, as previously reported, the conversion of 5-ALA into protoporphyrin IX (PpIX) in the mitochondria was confirmed by the fluorescence luminescence of PpIX.
A KillerRed vector was expressed in accordance with a general Lipofectamine® 2000 (Invitrogen) protocol. More specifically, 2×10^5 Hela cells were subcultured in a 35-mm glass bottom dish. The cells reached about 50% confluent in the next day.
Subsequently, a mixed solution of Lipofectamine reagent and DNA vector was obtained by mixing 6 μL Lipofectamine® 2000 with 7 μL pKillerRed-dMitovector ([…], Evrogen, catalog No. FP964) in an Opti-MEM solution (Gibco). Thereafter, the resulting solution was incubated for 20 minutes at room temperature. 300 μL of the mixed solution was added to a growth medium, and incubated for 24 hours. The expression of KillerRed was confirmed by monitoring KillerRed fluorescence using a wide-view microscope. […]
Further, on the night before the treatment, 0.2×10^6 HeLa cells were seeded on a 35-mm dish, and pKillerRed-dMito vector (Evrogen) was introduced using Lipofectaimine®2000 (Invitrogen®), followed by 24-hour incubation as described above, thereby preparing HeLa cells containing […]. […] Light irradiation was performed for 30 seconds simultaneously at 0.5 W/cm^2 and 0.6 W/cm^2 using a 640-/532-nm laser (Coherent) and a wide-view fluorescence microscope system mounted in an IX81 inverted microscope (Olympus Corporation). […]
Further, in this Experiment Example, 60-second light irradiation was performed using three kinds of photosensitizers, and an average number of pseudo colors appeared in the photo and an increase thereof were measured. […]

Cc1c2ccccc2c(C)c2cc(C3=C4C=CC(=[N+](C)C)C=C4[Si](C)(C)c4cc(N(C)C)ccc43)ccc12 [Si-DMA]
increase of fluorescence ([1]; 10 mM NaOCl and 10 mM H2O2, 10-minute incubation): about 10 times | fluorescence depending on concentration of singlet oxygen ([1]; aggregate): increase in fluorescence in proportion to the concentration of singlet oxygen | fluorescence depending on concentration of singlet oxygen ([1]; monomer): increase in fluorescence in proportion to the concentration of singlet oxygen | Φfl (fluorescence quantum yield) ([2]; in DMSO): 0.008 | Φfl (fluorescence quantum yield) ([2]; in acetone): 0.010 | Φfl (fluorescence quantum yield) ([2]; in benzene): 0.034 | Φfl (fluorescence quantum yield) ([2]; in chloroform): 0.010 | Φfl (fluorescence quantum yield) ([2]; in methanol): 0.01 | Φfl (fluorescence quantum yield) ([2]; in toluene): 0.030 | time to increase in fluorescence in the vicinity of the perinuclear region (HeLa cells; HeLa cells with PpIX (150 μg/mL 5-aminolevulinic acid, 4 h)): ≤ 10 s | color rendering (HeLa cells; HeLa cells with PpIX as photosensitizer): clear color rendering was accomplished
